Test results: patent US20230089605A1, “USE OF DOXYCYCLINE, RESVERATROL, IVERMECTIN, AND RELATED CHEMICALLY MODIFIED COMPOUNDS TO TREAT OR PREVENT VIRAL INFECTIONS” (Ardestat Biologics, LLC, priority 2021, published 2023)

Target: T1, MMP9 (Homo sapiens, UniProt P14780)
T1 construct: purchased Abcam ab139449
Assay: MMP9 inhibitor screening assay kit (Fluorometric), Abcam
Format: biochemical
Details: result given in words only
Protocol: Doxycycline, resveratrol, colchicine, and ivermectin were assessed at the indicated concentrations using the MMP9 Inhibitor Screening Assay Kit (abcam), according to the manufacturer's instructions.
Inhibition of MMP9 was determined using the MMP9 inhibitor screening assay kit (Fluorometric) from Abcam (Cat#ab139449) according to the manufacturer's instructions. Unquenching of a fluorogenic peptide by MMP9 was monitored for 10 minutes in the presence or absence of inhibitory compounds, using a fluorescent microplate reader (Ex/Em=328/420). Reaction velocity (V) in RFU/minute was used to determine the % of remaining enzymatic activity, relative to untreated control, according to the following equation: (Vinhibitor/Vcontrol)×100 (FIG. 2).

T1 sequence (P14780 107-444 limits assumed): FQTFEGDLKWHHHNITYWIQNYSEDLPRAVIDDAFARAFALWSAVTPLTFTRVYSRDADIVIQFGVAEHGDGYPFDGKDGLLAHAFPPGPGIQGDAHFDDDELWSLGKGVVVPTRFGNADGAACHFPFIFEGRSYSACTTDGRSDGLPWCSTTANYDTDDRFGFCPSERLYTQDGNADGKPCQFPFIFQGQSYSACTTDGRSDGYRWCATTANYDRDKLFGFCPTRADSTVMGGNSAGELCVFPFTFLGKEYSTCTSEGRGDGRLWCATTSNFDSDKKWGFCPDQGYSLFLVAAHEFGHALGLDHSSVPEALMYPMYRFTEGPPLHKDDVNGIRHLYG

| Compound | inhibition of MMP activity (% of remaining enzymatic activity relative to untreated control) (fluorogenic peptide unquenching monitored 10 minutes, FIG. 2) | interference with the MMP-inhibiting effects of doxycycline and resveratrol |
| --- | --- | --- |
| Oc1ccc(C=Cc2cc(O)cc(O)c2)cc1 [resveratrol] | inhibited MMP activity but to a much more modest extent compared to doxycycline |  |
| ivermectin |  | has not been shown to interfere with these MMP-inhibiting effects |
